Source: patent US20050004105A1, “Treatment for a attention-deficit hyperactivity disorder” (priority 2003, published 2005)
Entries after “also recorded” stand apart in the source; their conditions may differ. Read-outs that look alike come from different tables or passages of the source.

Key:
wild-type mice = test: Open-field locomotor activity, wild-type mice; type: in vivo
Source text: (§1) Heterozygote coloboma mice were originally purchased from The Jackson Laboratory (Bar Harbor, Me.) and were bred and maintained in our colony. In the current study, mutant mice and wild-type littermates, all aged 8 to 10 weeks, were used. Animals were divided into 4 groups: mutant/drug-treatment, mutant/vehicle-control, wild-type/drug-treatment, wild-type/vehicle-control (n=4-13 per group). Age and gender were balanced among groups. All animals were housed as littermates (2-4 mice per cage) and were maintained on ad libitum food and water with a 12 hr light/dark cycle.
(§2) The Open-field (OF) test was performed under normal lighting conditions (400 lux). Mice (Cm/+, WT) were brought into the experimental room and allowed at least 1 hr of acclimation. […] Each mouse was then placed into an OF arena (27×27×20 cm) with an infrared beam array system (Med Associates, St. Albans, Vt.) that automatically monitored the animal's activity. Four animals of matching genotype and treatment were tested at one time. The test session lasted 40 min and animals were returned to the home cage at the end of the session. Test measures included locomotion (distance traveled in cm) and number of center entries (zone crossings).

dopamine D2 receptors [1] = target: T1, dopamine D2 receptors (Homo sapiens, UniProt P14416); test: Dopamine D2 receptor affinity (Schipper et al., 1991); type: binding; conditions: converted from Ki of Schipper et al., read-out: pKi for D2 receptors (converted)
5-HT1A receptors [2] = target: T2, 5-HT1A receptors (Homo sapiens, UniProt P08908); conditions: Koek et al., 1998; cited from earlier work
T2 sequence (P08908 1-422): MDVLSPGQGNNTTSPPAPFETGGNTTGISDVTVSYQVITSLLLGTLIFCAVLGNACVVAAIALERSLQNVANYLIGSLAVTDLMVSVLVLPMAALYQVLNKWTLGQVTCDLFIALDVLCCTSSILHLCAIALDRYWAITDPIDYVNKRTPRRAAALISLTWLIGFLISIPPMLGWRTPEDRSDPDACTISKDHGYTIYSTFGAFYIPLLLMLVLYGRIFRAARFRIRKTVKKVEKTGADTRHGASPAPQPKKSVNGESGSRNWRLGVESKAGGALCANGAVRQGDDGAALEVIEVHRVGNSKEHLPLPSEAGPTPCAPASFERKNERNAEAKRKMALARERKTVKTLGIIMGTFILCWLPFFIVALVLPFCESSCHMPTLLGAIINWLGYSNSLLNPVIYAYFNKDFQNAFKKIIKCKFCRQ

dopamine D2 receptors [3] = target: T1, dopamine D2 receptors; conditions: Schipper et al., 1991; cited from earlier work
5-HT1A receptors [4] = target: T2, 5-HT1A receptors; test: 5-HT1A receptor affinity (Schipper et al., 1991); type: binding; conditions: for ΔpKi for 5-HT1A and D2 receptors: based on Ki values of Schipper et al.
D2 receptors = D2 receptors (Homo sapiens, UniProt P14416); conditions: Koek et al., 1998; cited from earlier work
5-HT1D receptors = conditions: Schipper et al., 1991; cited from earlier work
mice (C57BL/6J; C3H) = test: Peak procedure (peak interval procedure, PIP); type: in vivo; conditions: for effect on performance (relative response rate curve) in PIP 30 s task: C57BL/6J mice, vs saline
Description: The peak procedure is a behavioral model designed to assess an animal's ability to learn an appropriate time period in which to perform a task and a time period in which the animal will be rewarded if the task is performed. The model provides information concerning excitatory and inhibitory components of behavior, as subjects must respond to perform a task when appropriate and stop responding in an “empty trial” when time for reward has elapsed and the reward has not been delivered. The task is sensitive to conditions where there is a failure in inhibitory mechanisms, such as seems to be the case for ADHD (Pliszka et al., Biol. Psychiatry, 48:238-46, 2000).
In the peak procedure, mice are trained to work for food that is delivered at the same time in each trial, but withdrawn in some unreinforced trials. Typically, the response rate increases up to a maximum around the reinforcement time, and then decreases to a low toward the end of the trial. The shape of the response rate indicates whether the animal is sensitive to the time of reinforcement. To be able to perform well in this model, the animals need to be able to learn several tasks. First, the animal must make an association between a response (lever pressing, nose poking or key pecking) and the delivery of reward. Second, the animal must be able to perceive and remember time. Third, the animal must act on its remembered time by starting and then stopping or inhibiting the response. Fourth, the animal must be able to compare the elapsed time in the trials with its remembered time to reinforcement. In each trial the time clock is reset, and the animal must reset its internal “counter,” i.e., at the beginning of each trial animals should start “timing” the trial time from zero. The ability to perform this task depends on the animal's working memory. Starting the internal clock at the beginning of the trial requires that the animal pays attention to the trial start time, which could be in the form of a visual signal, or as reported herein, the introduction of a lever into the experimental chamber. […] Accuracy is measured by looking at the shape of the response function; therefore, if the response function is sharper and centered on the reinforcement time it supports a conclusion that attentional processes have been heightened.
All mice were food deprived to a target weight of 85-90% of their free-feeding weight before training began. Mice were fed approximately 10% of their body weight until they reached their target weight. On average, 1 week of food deprivation was sufficient to reach the target weight. During this time, all subjects were fed Bioserve 500 mg precision dustless pellets as their daily ration. They were exposed to Carnation™ evaporated milk in the home cage to avoid a possible neophobic reaction to the reinforcement. Subjects were given 1-week “vacations” every 4 to 6 weeks at which time they were allowed free access to food and a new free-feeding body weight baseline was recorded. Water was continuously available in the cage.
Once deprived, animals were trained to lever-press in an operant chamber using ultrasensitive levers. Sixteen mouse operant chambers (Med Associates, Georgia, Vt.) were configured identically with two retractable ultra-sensitive levers, stimulus lights, and a dipper for delivery of condensed milk. A house light was placed on the opposite wall from the levers. Each chamber was placed in isolation cubicle. A fan provided white masking noise and adequate air.
Training and testing consisted of 1-h daily sessions. Subjects started on a concurrent fixed ratio 1-fixed time 1 min (FR 1-FT 1) schedule of reinforcement in which the house light served as the discriminative stimulus. Food was delivered every 1 min but the delivery was immediate if the animal made a response. […] After no more than 1 week on this schedule, mice began training with a fixed-interval (FI) 10 s schedule in which all trials were separated by a 20 s, intertrial interval. […]

[5] = system: coloboma mutant (Cm) mice; test: Open-field locomotor activity, coloboma mutant mice; type: in vivo
Source text: as §1, §2

5-HT1B receptors = conditions: Schipper et al., 1991; Boddeke et al., 1992; cited from earlier work
rats = rats trained to discriminate flesinoxan (0.5 mg/kg i.p.) from saline; cited from earlier work
5-HT1A receptors [6] = target: T2, 5-HT1A receptors; test: 5-HT1A receptor affinity (Koek et al., 1998); type: binding; conditions: from pKi values of Koek et al.
α1 adrenergic receptors = conditions: Schipper et al., 1991; cited from earlier work
5-HT1A receptors [7] = target: T2, 5-HT1A receptors; conditions: Schipper et al., 1991; cited from earlier work
5-HT1A receptors [8] = target: T2, 5-HT1A receptors; conditions: proportion of maximal inhibition of forskolin-stimulated cAMP relative to 5-HT; Koek et al., 1998; cited from earlier work
[9] = target: other neurotransmitter receptors; conditions: Schipper et al., 1991; cited from earlier work
Cm mutant mice = Cm mutant mice (methylphenidate: both control and Cm mutants); Hess et al., 1996; cited from earlier work
[10] = system: other 5-HT receptor subtypes or other neurotransmitter receptors; conditions: reported; cited from earlier work
[11] = C3H mice, 0.03 mg/kg, vs vehicle
[12] = C3H mice, 0.1 mg/kg, vs vehicle

T1 sequence (P14416 whole entry): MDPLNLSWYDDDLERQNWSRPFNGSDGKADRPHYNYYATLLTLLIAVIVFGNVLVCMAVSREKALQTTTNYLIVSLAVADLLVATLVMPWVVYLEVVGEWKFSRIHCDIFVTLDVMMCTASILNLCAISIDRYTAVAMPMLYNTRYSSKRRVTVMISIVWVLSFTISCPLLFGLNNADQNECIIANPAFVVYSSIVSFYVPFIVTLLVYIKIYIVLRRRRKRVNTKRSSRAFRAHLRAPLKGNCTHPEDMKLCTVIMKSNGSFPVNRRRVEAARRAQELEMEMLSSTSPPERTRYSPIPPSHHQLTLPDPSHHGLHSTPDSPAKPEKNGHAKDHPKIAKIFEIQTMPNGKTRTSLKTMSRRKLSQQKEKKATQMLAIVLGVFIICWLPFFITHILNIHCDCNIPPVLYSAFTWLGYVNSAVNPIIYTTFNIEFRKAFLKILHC
Sequence of D2 receptors (P14416 whole entry): as above

Structure (SMILES): Cl.O=C(NCCN1CCN(c2cccc3c2OCC(CO)O3)CC1)c1ccc(F)cc1 (single isomer, unassigned; (+)) [flesinoxan, (+)(4-fluoro-N-[2-[4-[2-(hydroxymethyl)-1,4-benzodioxane-5-yl] 1-piperazinyl]ethyl]benzamide) HCl]
- locomotion (distance traveled or zones crossed) (wild-type mice; 0.3 mg/kg i.p.): only marginally affected locomotion
- Ki (dopamine D2 receptors [1]): 141 nM
- pKi for 5-HT1A receptors (5-HT1A receptors [2]): 8.91
- Ki (dopamine D2 receptors [3]): 140 nM
- ΔpKi for 5-HT1A and D2 receptors (5-HT1A receptors [4]): about 1.92
- Ki (5-HT1A receptors [4]; converted from Ki of Schipper et al.): 1.7 nM
- pKi for D2 receptors (D2 receptors): 7.05
- Ki (5-HT1D receptors): 160 nM
- effect on response curve in PIP 30 s (mice (C57BL/6J; C3H); [11]): the peaks of the response curve is higher and the curves are sharper than vehicle
- effect on response curve in PIP 45 s (mice (C57BL/6J; C3H); [11]): evident but less robust
- effect on performance curves in PIP 30 s and PIP 45 s (mice (C57BL/6J; C3H); [12]): more comparable to saline curve
- reduction in locomotor activity compared to vehicle-treated Cm mutants ([5]; Cm mutant mice, 0.3 mg/kg i.p.): more than 75%
- total ambulatory distance ([5]; Cm mutant mice, 0.3 mg/kg i.p. 30 min before 40 min open-field session, vehicle 6112±1621): 1462±411 centimeters
- frequency of zone crossings ([5]; Cm mutant mice, 0.3 mg/kg i.p., overall effect not statistically significant (p=0.0683)): decreased the frequency of zone crossings in Cm mutants to within the range of saline-treated wild-type mice
- Ki (5-HT1B receptors): 810 nM
- generalization to stimuli of α1 adrenoceptor antagonist, α2 adrenoceptor agonist, dopamine receptor agonist or antagonists (rats): did not generalize
- ΔpKi for 5-HT1A and D2 receptors (5-HT1A receptors [6]): 1.86
- Ki (α1 adrenergic receptors): 380 nM
- Ki (5-HT1A receptors [7]): 1.7 nM
- intrinsic activity at the 5-HT1A receptor (5-HT1A receptors [8]): 0.93

Structure (SMILES): CCCN(CCC)C1Cc2c[nH]c3ccc(C(N)=O)c(c23)C1 (single isomer, unassigned; (-)) [LY228729, (−)-4(dipropylamino)-1,3,4,5-tetrahydrobenz-[c,d,]indole-6-carboxamide]
- intrinsic activity at the 5-HT1A receptor (5-HT1A receptors [8]): 0.88

Structure (SMILES): CCCN(CCC)C1CCc2cccc(O)c2C1 (stereo not drawn) [8-OH-DPAT, 8-hydroxy-2(di-n-propylamino)tetralin]
- total ambulatory distance (wild-type mice; 0.1 mg/kg, vehicle 7720±2726, non-significant): 4517±1599 centimeters
- ΔpKi for 5-HT1A and D2 receptors (5-HT1A receptors [4]): 2.94
- Ki (5-HT1D receptors): 930 nM
- effect on performance curves in PIP 30 s and PIP 45 s (mice (C57BL/6J; C3H); C3H mice, 0.01 mg/kg, vs vehicle, 0.01 mg/kg): not significantly different from the saline curve; also recorded: slightly disruptive
- effect on performance curves in PIP 30 s and PIP 45 s (mice (C57BL/6J; C3H); [12]): not significantly different from the saline curve
- Ki [9]: > 1000 nM
- attenuation of total ambulatory distance compared to vehicle ([5]; Cm mice, 0.1 mg/kg): ~50%
- total frequency of zone crossings ([5]; Cm mice, 0.1 mg/kg, p=0.030): significantly decreased
- total ambulatory distance ([5]; Cm mice, 0.1 mg/kg, vehicle 14702±2611, not statistically significant): 7813±2606 centimeters
- attenuation of Cm hyperactivity ([5]; Cm mice, lower doses 0.001 or 0.01 mg/kg, data not shown): no significant attenuation
- Ki (α1 adrenergic receptors): 380 nM

Structure (SMILES): Cn1c(=O)cnn(CCCCN2CCN(c3ncccn3)CC2)c1=O [F11440, 4-methyl-2-(4-[4-(pyrimidin-2-yl)-piperazino]-butyl)-2H,4H-1,2,4-triazin-3,5-dione]
- pKi for 5-HT1A receptors (5-HT1A receptors [2]): 8.33
- pKi for D2 receptors (D2 receptors): 5.75
- ΔpKi for 5-HT1A and D2 receptors (5-HT1A receptors [6]): 2.58
- intrinsic activity at the 5-HT1A receptor (5-HT1A receptors [8]): 1.0

Structure (SMILES): COc1ccc2cccc(N3CCN(CCNC(=O)c4ccc(F)cc4)CC3)c2c1 [S14506, 1(2-[4-fluorobenzoylamino]ethyl)-4-(7-methoxynaphtyl)piperazine]
- intrinsic activity at the 5-HT1A receptor (5-HT1A receptors [8]): 0.95

Structure (SMILES): CC(N)Cc1ccccc1 (stereo not drawn) [amphetamine]
- total distance traveled (wild-type mice; 4 mg/kg i.p. 30 min before 40 min open-field session, saline 3116±338): 11657±2370 centimeters
- effect on hyperactivity / locomotor activity (Cm mutant mice): normalizes the hyperactivity
- effect on performance (relative response rate curve) in PIP 30 s task (mice (C57BL/6J; C3H); 1 mg/kg): positive effects
- effect on performance (relative response rate curve) in PIP 30 s task (mice (C57BL/6J; C3H); 2 mg/kg): positive effects
- effect on performance (relative response rate curve) in PIP 30 s task (mice (C57BL/6J; C3H); 4 mg/kg): disrupted performance
- total distance traveled ([5]; Cm mutant mice, 4 mg/kg i.p. 30 min before 40 min open-field session, saline 18386±6387): 5966±1938 cm

Structure (SMILES): O=C1CC2(CCCC2)CC(=O)N1CCCCN1CCN(c2ncccn2)CC1 [buspirone]
- ΔpKi for 5-HT1A and D2 receptors (5-HT1A receptors [4]): 0.44

Structure (SMILES): CC1(C)CC(=O)N(CCCCN2CCN(c3ncccn3)CC2)C(=O)C1 [gepirone]
- intrinsic activity at the 5-HT1A receptor (5-HT1A receptors [8]): 0.77

Structure (SMILES): Clc1cnn(CCCCN2CCN(c3ncccn3)CC2)c1 [lesopitron, 2-[4-[4-(4-chloro-1H-pyrazol-1-yl)-butyl]-1-piperazinyl]pyrimidine]
- affinity for other 5-HT receptor subtypes or other neurotransmitter receptors [10]: virtually no affinity
- intrinsic activity at the 5-HT1A receptor (5-HT1A receptors [8]): 0.70

Structure (SMILES): COC(=O)C(c1ccccc1)C1CCCCN1 (stereo not drawn) [methylphenidate]
- effect on hyperactivity / locomotor activity (Cm mutant mice): increases locomotor activity in a dose-dependent manner
